# Target: ASK1 kinase (Homo sapiens (Human), UniProt Q99683)
# Experiment: HTRF KinEASE assay of ASK1 kinase activity inhibition
# Format: biochemical
# Conditions: 5 nM ASK1, 1 uM STK3 peptide substrate, 100 uM ATP, TR-FRET readout
# Experimental: The ability (IC50) of compounds to inhibit ASK1 kinase activity was determined by HTRF® KinEASE™ Assay System. ASK1 was purchased from Thermofisher (Catalogue #PV4011), ATP was purchased from Sigma (Catalogue #A7699), HTRF® KinEASE™ Assay System was obtained from Cisbio (Bedford, Mass.). ½ Area plate was purchased from Perkin Elmer (Catalogue ##6005560). HTRF® KinEASE™-STK is a generic method for measuring serine/threonine kinase activities using a time-resolved fluorescence resonance energy transfer (TR-FRET) immunoassay. The IC50 value for each compound was determined in the presence of compound (various concentration from 0 to 10 μM) and a fixed amount of ATP and peptide substrates. The test compound, 1 uM STK3 peptide substrate, and 5 nM of ASK1 kinase are incubated with kinase reaction buffer containing 50 mM HEPES pH 7.5, 0.01% BRIJ-35, 10 mM MgCl2, and 1 mM EGTA for 30 minutes. 100 uM ATP is added to start kinase reaction and incubated for 3 hours. The STK3-antibody labeled with Eu^3+-Cryptate and 125 nM streptavidin-XL665 are mixed in a single addition with stop reagents provided by the Cisbio kit used to stop the kinase reaction. Fluorescence is detected using an Envision Multilabeled 2014 reader from PerkinElmer. The Fluorescence is measured at 615 nm (Cryptate) and 665 nm (XL665) and a ratio of 665 nm/615 nm is calculated for each well. The resulting TR-FRET is proportional to the phosphorylation level. Staurosporine was used as the positive control. IC50 was determined by XLfit 5.3. By using above method, the inhibition of ASK1 was tested for the compound of formula (I). IC50 ranges are as follows: A<1 nM; 1 nM<B<10 nM; 10 nM<C<100 nM; 100 nM<D<1 μM; E>1 μM.
# ASK1 kinase, sequence (Q99683 whole entry): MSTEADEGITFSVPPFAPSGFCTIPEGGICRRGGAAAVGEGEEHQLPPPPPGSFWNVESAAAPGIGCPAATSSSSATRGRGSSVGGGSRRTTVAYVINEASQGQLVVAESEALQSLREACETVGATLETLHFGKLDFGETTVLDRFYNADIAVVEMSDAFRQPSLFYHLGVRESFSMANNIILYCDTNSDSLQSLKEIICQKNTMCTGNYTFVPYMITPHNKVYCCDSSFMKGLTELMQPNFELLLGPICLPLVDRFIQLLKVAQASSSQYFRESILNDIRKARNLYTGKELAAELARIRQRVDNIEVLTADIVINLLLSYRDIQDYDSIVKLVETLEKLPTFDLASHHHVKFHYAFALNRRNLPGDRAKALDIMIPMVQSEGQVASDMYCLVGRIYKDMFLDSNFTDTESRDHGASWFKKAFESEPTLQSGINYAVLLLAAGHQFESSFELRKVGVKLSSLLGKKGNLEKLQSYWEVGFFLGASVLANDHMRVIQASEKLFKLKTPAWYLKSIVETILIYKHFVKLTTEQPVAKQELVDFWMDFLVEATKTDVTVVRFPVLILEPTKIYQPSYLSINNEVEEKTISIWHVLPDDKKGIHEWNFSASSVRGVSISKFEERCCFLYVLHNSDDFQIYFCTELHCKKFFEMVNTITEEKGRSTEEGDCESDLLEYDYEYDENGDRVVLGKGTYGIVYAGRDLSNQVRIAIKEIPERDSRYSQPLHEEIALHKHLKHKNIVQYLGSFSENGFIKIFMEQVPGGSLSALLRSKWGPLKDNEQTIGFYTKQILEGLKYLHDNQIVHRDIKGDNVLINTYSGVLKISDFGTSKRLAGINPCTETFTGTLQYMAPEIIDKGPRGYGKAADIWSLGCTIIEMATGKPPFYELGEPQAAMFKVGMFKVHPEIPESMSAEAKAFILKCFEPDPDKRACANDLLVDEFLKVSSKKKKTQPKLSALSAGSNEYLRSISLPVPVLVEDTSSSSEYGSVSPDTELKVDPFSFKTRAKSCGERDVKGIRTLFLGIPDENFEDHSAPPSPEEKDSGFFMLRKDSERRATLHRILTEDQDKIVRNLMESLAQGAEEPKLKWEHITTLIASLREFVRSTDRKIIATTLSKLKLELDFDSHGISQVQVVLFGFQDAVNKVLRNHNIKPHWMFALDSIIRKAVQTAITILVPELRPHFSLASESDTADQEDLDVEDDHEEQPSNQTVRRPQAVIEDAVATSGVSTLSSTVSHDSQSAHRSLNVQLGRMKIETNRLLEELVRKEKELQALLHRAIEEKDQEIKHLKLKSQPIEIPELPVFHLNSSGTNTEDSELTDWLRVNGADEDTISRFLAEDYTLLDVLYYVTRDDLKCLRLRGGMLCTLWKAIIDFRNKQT
row,Structure (SMILES),IC50 [nM]
1,COc1cc(C)c(-c2ccn(C(C)C)n2)cc1C(=O)Nc1cccc(-c2nnnn2[C@H](C)CO)n1 [Example 80],< 1
2,Cc1cnc(C(=O)Nc2cccc(-c3nnnn3[C@H](C)CO)n2)cc1-c1cn(C(C)C)cn1 [Example 25],1 to 10
3,Cc1cnc(C(=O)Nc2cccc(-c3nnnn3[C@H](C)CO)n2)cc1-c1cccnc1 [Example 41],1 to 10
4,Cc1cnc(C(=O)Nc2cccc(-n3nnnc3C(C)C)n2)cc1-c1cn(C(C)C)cn1 [Example 24],> 1000
5,Cc1cc(F)c(C(=O)Nc2cccc(-c3nnnn3[C@H](C)CO)n2)cc1-c1cnn(C(F)(F)F)c1 [Example 57],1 to 10
6,COc1cc(C)c(-c2cnn(C3CC3)c2)cc1C(=O)Nc1cccc(-c2nnnn2C(C)C)n1 [Example 75],< 1
7,Cc1cc(F)c(C(=O)Nc2cccc(-c3nnnn3C(C)C)n2)cc1-c1cc(C2CC2)on1 [Example 71],10 to 100
8,CC(C)n1nnnc1-c1cccc(NC(=O)c2cc(-c3cnn(C4CC4)c3)c(F)cn2)n1 [Example 3],10 to 100
9,Cc1cc(F)c(C(=O)Nc2cccc(-n3nnnc3C(C)C)n2)cc1-c1ccn(C(C)C)n1 [Example 59],> 1000
10,CC(C)n1nnnc1-c1cccc(NC(=O)c2cc(-c3cnn(C4CC4)c3)c(N3CCN(C)CC3)cn2)n1 [Example 7],1 to 10
11,"COc1cc(C)c(-c2cnn(C3CC3)c2)cc1C(=O)Nc1cccc(-c2nnnn2[C@H](C)CO)n1 [Example 77, 5-(1-cyclopropyl-1H-pyrazol-4-yl)-N-(6-[1-[(2R)-1-hydroxypropan-2-yl]-1H-1,2,3,4-tetrazol-5-yl]pyridin-2-yl)-2-methoxy-4-methylbenzamide]",< 1
12,Cc1ncc(-c2cc(C(=O)Nc3cccc(-c4nnnn4C(C)C)n3)c(F)cc2C)s1 [Example 67],10 to 100
13,CC(C)n1nnnc1-c1nc(NC(=O)c2cc(-c3cnn(C4CC4)c3)c(C(F)(F)F)cn2)cs1 [Example 15],10 to 100
14,Cc1nc(-c2cc(C(=O)Nc3cccc(-c4nnnn4C(C)C)n3)ncc2C)cs1 [Example 40],10 to 100
15,Cc1cnc(C(=O)Nc2cccc(-c3nnnn3C(C)C)n2)cc1-c1cnn(C(F)(F)F)c1 [Example 30],10 to 100
16,Cc1cnc(C(=O)Nc2cccc(-c3nnnn3[C@H](C)CO)n2)cc1-c1ccc(C2CC2)s1 [Example 45],1 to 10
17,CC(C)n1nnnc1-c1nc(NC(=O)c2cc(-c3cnn(C4CC4)c3)c(N3CCCCC3)cn2)cs1 [Example 11],10 to 100
18,Cc1cc(F)c(C(=O)Nc2cccc(-c3nnnn3[C@H]3CCOC3)n2)cc1-c1cnn(C2CC2)c1 [Example 81],1 to 10
19,Cc1cnc(C(=O)Nc2cccc(-n3nnnc3C(C)C)n2)cc1-c1cnn(C(C)C)c1 [Example 27],1 to 10
20,Cc1cc(F)c(C(=O)Nc2cccc(-c3nnnn3C(C)C)n2)cc1-c1ccncc1 [Example 66],10 to 100
21,CC(C)n1nnnc1-c1nc(NC(=O)c2cc(-c3cnn(C4CC4)c3)c(N3CCOCC3)cn2)cs1 [Example 10],1 to 10

row,Structure (SMILES),IC50 [nM]
1,Cc1cc(F)c(C(=O)Nc2cccc(-c3nnnn3[C@H](C)CO)n2)cc1-c1ccc(C2CC2)s1 [Example 70],1 to 10
2,Cc1cnc(C(=O)Nc2cccc(-c3nnnn3C(C)C)n2)cc1-c1cnn(C2CC2)c1 [Example 2],10 to 100
3,C[C@H](CO)n1nnnc1-c1cccc(NC(=O)c2cc(-c3cnn(C4CC4)c3)c(C(F)(F)F)cn2)n1 [Example 16],1 to 10
4,Cc1cnc(C(=O)Nc2cccc(-c3nnnn3C(C)C)n2)cc1-c1ccncc1 [Example 38],10 to 100
5,CC(C)n1nnnc1-c1cccc(NC(=O)c2cc(-c3cnn(C4CC4)c3)c(C(F)F)cn2)n1 [Example 18],1 to 10
6,Cc1cc(F)c(C(=O)Nc2cccc(-n3nnnc3C(C)C)n2)cc1-c1cnn(C(F)(F)F)c1 [Example 56],100 to 1000
7,Cc1cc(F)c(C(=O)Nc2cccc(-c3nnnn3C(C)C)n2)cc1-c1cnn(C(F)(F)F)c1 [Example 55],10 to 100
8,Cc1cnc(C(=O)Nc2cccc(-n3nnnc3C(C)C)n2)cc1-c1cnn(C(F)(F)F)c1 [Example 31],> 1000
9,Cc1cnc(C(=O)Nc2cccc(-n3nnnc3C(C)C)n2)cc1-c1ccn(C(C)C)n1 [Example 34],> 1000
10,Cc1cc(F)c(C(=O)Nc2cccc(-n3nnnc3C(C)C)n2)cc1-c1cnn(C(C)C)c1 [Example 51],1 to 10
11,Cc1cc(F)c(C(=O)Nc2cccc(-c3nnnn3C(C)C)n2)cc1-c1cn(C(C)C)cn1 [Example 61],10 to 100
12,Cc1cc(F)c(C(=O)Nc2cccc(-c3nnnn3C(C)C)n2)cc1-c1cccnc1 [Example 65],1 to 10
13,Cc1cnc(C(=O)Nc2cccc(-c3nnnn3C(C)C)n2)cc1-c1ccc(C2CC2)s1 [Example 44],10 to 100
14,Cc1cnc(C(=O)Nc2cccc(-n3nnnc3C(C)C)n2)cc1-c1cnn(C2CC2)c1 [Example 17],10 to 100
15,Cc1cnc(C(=O)Nc2cccc(-c3nnnn3C(C)C)n2)cc1-c1cn(C(C)C)cn1 [Example 23],10 to 100
16,CC(C)n1nnnc1-c1cccc(NC(=O)c2cc(-c3cnn(C4CC4)c3)c(N3CCCC3)cn2)n1 [Example 4],10 to 100
17,CC(C)n1nnnc1-c1cccc(NC(=O)c2cc(-c3cnn(C4CC4)c3)ccn2)n1 [Example 1],10 to 100
18,Cc1cnc(C(=O)Nc2cccc(-c3nnnn3[C@H](C)CO)n2)cc1-c1cnc(C2CC2)s1 [Example 43],1 to 10
19,Cc1cc(F)c(C(=O)Nc2cccc(-c3nnnn3[C@H](C)CO)n2)cc1-c1cnn(C(C)(C)C)c1 [Example 54],1 to 10
20,Cc1nc(-c2cc(C(=O)Nc3cccc(-c4nnnn4C(C)C)n3)c(F)cc2C)cs1 [Example 68],100 to 1000

# Continued, values first:
row,IC50 [nM],Structure (SMILES)
1,1 to 10,Cc1cnc(C(=O)Nc2cccc(-c3nnnn3[C@H](C)CO)n2)cc1-c1cnn(C(C)(C)C)c1 [Example 22]
2,10 to 100,Cc1cnc(C(=O)Nc2cccc(-n3nnnc3C(C)C)n2)cc1-c1cnn(C(C)(C)C)c1 [Example 21]
3,1 to 10,Cc1cnc(C(=O)Nc2cccc(-c3nnnn3C(C)C)n2)cc1-c1cnn(C(C)C)c1 [Example 26]
4,< 1,COc1cc(C)c(-c2cnn(C3CC3)c2)cc1C(=O)Nc1cccc(-n2nnnc2C(C)C)n1 [Example 76]
5,10 to 100,Cc1cc(F)c(C(=O)Nc2cccc(-c3nnnn3[C@H](C)CO)n2)cc1-c1cn(C(C)C)cn1 [Example 63]
6,1 to 10,Cc1ncc(-c2cc(C(=O)Nc3cccc(-c4nnnn4C(C)C)n3)ncc2C)s1 [Example 39]
7,10 to 100,COc1cc(C)c(-c2ccn(C(C)C)n2)cc1C(=O)Nc1cccc(-n2nnnc2C(C)C)n1 [Example 79]
8,1 to 10,CC(C)n1nnnc1-c1nc(NC(=O)c2cc(-c3cnn(C4CC4)c3)c(C(F)F)cn2)cs1 [Example 19]
9,10 to 100,CC(C)n1nnnc1-c1cccc(NC(=O)c2cc(-c3cnn(C4CC4)c3)c(N3CCCCC3)cn2)n1 [Example 5]
10,1 to 10,C[C@H](CO)n1nnnc1-c1cccc(NC(=O)c2cc(-c3cnn(C4CC4)c3)c(C(F)F)cn2)n1 [Example 29]
11,1 to 10,Cc1cc(F)c(C(=O)Nc2cccc(-c3nnnn3[C@H](C)CO)n2)cc1-c1cnn(C2CC2)c1 [Example 47]
12,1 to 10,Cc1cc(F)c(C(=O)Nc2cccc(-c3nnnn3[C@@H]3CCC[C@@H]3O)n2)cc1-c1cnn(C2CC2)c1 [Example 84]
13,1 to 10,Cc1cc(F)c(C(=O)Nc2cccc(-c3nnnn3C(C)C)n2)cc1-c1cnn(C2CC2)c1 [Example 46]
14,100 to 1000,Cc1cc(F)c(C(=O)Nc2cccc(-c3nnnn3C(C)C)n2)cc1-c1ccccn1 [Example 64]
15,1 to 10,CC(C)n1nnnc1-c1nc(NC(=O)c2cc(-c3cnn(C4CC4)c3)c(N3CCN(C)CC3)cn2)cs1 [Example 12]
16,1 to 10,Cc1cnc(C(=O)Nc2cccc(-c3nnnn3[C@H](C)CO)n2)cc1-c1cnn(C(F)(F)F)c1 [Example 32]
17,10 to 100,Cc1cc(F)c(C(=O)Nc2cccc(-c3nnnn3C(C)C)n2)cc1-c1ccn(C(C)C)n1 [Example 58]
18,1 to 10,Cc1cnc(C(=O)Nc2cccc(-c3nnnn3[C@H](C)CO)n2)cc1-c1ccn(C(C)C)n1 [Example 35]
19,1 to 10,Cc1cnc(C(=O)Nc2cccc(-c3nnnn3C(C)C)n2)cc1-c1cnn(C(C)(C)C)c1 [Example 20]
20,1 to 10,Cc1cnc(C(=O)Nc2cccc(-c3nnnn3C(C)C)n2)cc1-c1cnc(C2CC2)s1 [Example 42]
21,10 to 100,Cc1cc(F)c(C(=O)Nc2cccc(-c3nnnn3[C@H](C)CO)n2)cc1-c1ccn(C(C)C)n1 [Example 60]
22,1 to 10,COc1cc(C)c(-c2cnn(C)c2)cc1C(=O)Nc1cccc(-n2nnnc2C(C)C)n1 [Example 74]
23,1 to 10,Cc1cc(F)c(C(=O)Nc2cccc(-c3nnnn3C(C)C)n2)cc1-c1cnn(C(C)(C)C)c1 [Example 52]
24,1 to 10,Cc1cnc(C(=O)Nc2cccc(-c3nnnn3[C@H](C)CO)n2)cc1-c1cnn(C2CC2)c1 [Example 13]
